# According to ChEMBL document CHEMBL1129014, “Crystal receptor models in medicinal chemistry: Application to the generation of highly potent potassium channel openers” (Bioorg Med Chem Lett, 1996):
# pIC50: −log10 of the molar value.
# Species: Cavia porcellus
# Assay: Inhibitory activity against potassium (15 mM) induced contractions of the guinea pig detrusor smooth muscle.
# Type: functional
row,SMILES,pIC50
1,C[C@](O)(C(=O)Nc1ccc(S(=O)(=O)c2ccccc2)cc1)C(F)(F)F,6.00
2,C[C@]1(C(F)(F)F)CN(c2cccc[n+]2[O-])c2cc(S(=O)(=O)c3ccccc3)ccc2O1,6.17
3,CC1(C)CN(c2cccc[n+]2[O-])c2cc(S(=O)(=O)c3ccccc3)ccc2O1,5.39

# The remaining compounds from weak to strong by pIC50, led by results:
row,pIC50,SMILES
1,6.22,CC1(C)Oc2ccc(C#N)cc2[C@@H](N2CCCC2=O)[C@@H]1O [CROMAKALIM]
2,6.27,CC1(C(F)(F)F)CN(c2cccc[n+]2[O-])c2cc(S(=O)(=O)c3ccccc3)ccc2O1 (stereo not drawn)
3,6.30,C[C@](O)(C(=O)Nc1ccc([N+](=O)[O-])cc1)C(F)(F)F
4,6.55,C[C@@]1(C(F)(F)F)CN(c2cccc[n+]2[O-])c2cc(S(=O)(=O)c3ccccc3)ccc2O1
5,8.15,O=[N+]([O-])c1ccc2c(c1)N(c1cccc[n+]1[O-])CC(C(F)F)(C(F)F)O2
